This note sets out measurements from patent US8426403B2, “Gamma secretase modulators” (priority 2007, dated 2013).

The test relates to Aβ42. In words: Secretase Reaction and Aβ Analysis in Whole Cells (total Aβ, Aβ40, Aβ42 by ECL sandwich immunoassay). The format is cell-based. The settings on record: HEK293 cells overexpressing APP with Swedish and London mutations. On the procedure: Secretase Reaction and Aβ Analysis in Whole Cells: HEK293 cells overexpressing APP with Swedish and London mutations were treated with the specified compounds for 5 hour at 37° C. in […] of DMEM medium containing 10% fetal bovine serum. At the end of the incubation, total Aβ, Aβ40 and Aβ42 were measured using electrochemiluminescence (ECL) based sandwich immunoassays. Total Aβ was determined using a pair of antibodies TAG-WO2 and biotin-4G8, Aβ40 was identified with antibody pairs TAG-G2-10 and biotin-4G8, while Aβ42 was identified with TAG-G2-11 and biotin-4G8. The ECL signal was measured using Sector Imager 2400 (Meso Scale Discovery).

The IC50 is the point on the concentration scale where inhibition reaches its midpoint. Take `COc1cc(/C=C/C2=NC(=O)C(C)(c3ccc(F)cc3)N2)ccc1-n1cnc(C)c1` (centres unmarked) [Compound G4]: the Abtotal/Ab42 selectivity (total Aβ versus Aβ42) was 11 fold. The IC50 (Homo sapiens, 5 hour at 37° C., ECL sandwich immunoassay, read-out: Ab42 IC50) was 1110 nM.
